The results in this text go back to US11649253B2, “Terbium and dysprosium complexes with optimised antenna, used as luminescent markers” (ECOLE NORMALE SUPERIEURE DE LYON, priority 2017, dated 2023).

Values joined by “and” are separate entries in the source; they are usually repeats but may differ in a detail not shown here. Equal entries are not always repeated.

The nature of series [1]: Photophysical properties of the complexes measured in methanol. It is filed as physicochemical. The note with it: for λ max: absorption; for B at λ max: brightness at λ max; for ε: molar extinction coefficient; for Φ: quantum yield. Here is the method:
(§1) The NMR (^1H, ^13C) spectra were recorded on a Bruker Avance device at a frequency of 300 MHz or 500.10 MHz, and 75 MHz or 125.75 MHz, for ^1H and ^13C respectively. Chemical shifts (δ) are expressed in parts per million (ppm) with respect to […] used as an internal standard and using the solvents indicated. The coupling constants (J) are expressed in Hz and the following notations are used: s (singlet), br (broad), d (doublet), t (triplet), dd (doublet of doublets), m (multiplet). The high-resolution mass spectra were recorded at the Lyon Common Mass Spectrometry Centre (Claude Bernard Lyon University, Lyon, France) on a MicroTOFQII instrument equipped with a positive ESI source. […] Purifications were carried out by chromatographic column on silica gel (silica gel 0.035-0.070 mm, 60 A). The solvents used for the reactions were purchased from Aldrich or Acros Organics as dry or extra dry solvents and stored on 3 Å molecular sieves and the reagents used were purchased from Aldrich, Acros Organics or Alfa Aesar. The UV/Vis absorption spectra were recorded on a JASCO V670 spectrometer; the emission spectra on a JOBIN-YVON fluorolog 3 spectrofluorimeter. Retention times were performed on an Agilent Technologies 1260 device equipped with a Waters XBridge RP-C18 column ([…], 4.6×100 mm). The chromatographic system used is 0.25 M ammonium formate-MeCN (v/v) as eluents: isocratic 15% MeCN (2 min), linear gradient 15 to 100% MeCN (16 min), isocratic 100% MeCN (4 min), at a rate of 1 mL/min, UV detection at 210 and 252 nm. Cellular imaging tests were performed using a solution concentrated in complex in DMSO to obtain a final complex concentration in the order of […] in cellular medium (PBS) with <1% DMSO. The T24 cells are prefixed to the PFA. The biphotonic absorption spectra were performed with a confocal laser scanning microscope LSM710 NLO (Carl Zeiss).
The properties of complexes Ia.1-Ia.6 and 8 were evaluated in methanol (Table 1) and water (Table 2). These properties were compared to those of complex 9, described in the document, Dalton Trans.

Series [2] in a line: Photophysical properties of the complexes measured in water. In kind it is physicochemical. The note with it: for λ max: absorption; for B at λ max: brightness at λ max; for ε: molar extinction coefficient. The method, then: as §1
The properties of complexes Ia.1-Ia.6 and 8 were evaluated in methanol (Table 1) and water (Table 2). These properties were compared to those of complex 9, described in the document, Dalton Trans. 2015, 44, 4918, and of the following structure:
The spectroscopic properties of complexes Ia.2 and Ia.4 are stored in water (Table 2).

In the case of `COCCOCCOCCOc1cc(C)c(-c2cc(CN3CCN(Cc4cc(-c5c(C)cc(OCCOCCOCCOC)cc5C)cc(C(=O)[O-])n4)CCN(Cc4cc(-c5c(C)cc(OCCOCCOCCOC)cc5C)cc(C(=O)[O-])n4)CC3)nc(C(=O)[O-])c2)c(C)c1.[Tb+3]` [Ia.4], the “decrease of the molar extinction coefficient on introduction of a second methyl group” value in series [1] (Ia.4 compared with its counterpart Ia.2) was “more than 50%”. The λ max in series [1] (methanol) was 302 nm and 274 nm; in series [2] (absorption band at 275 nm), 275 nm; in series [2] (absorption band at 300 nm), 300 nm. For the same molecule, the “B at 330 nm” value in series [1] (brightness at 330 nm, methanol) came to 3400 L/mol/cm; in series [2] (brightness at 330 nm), 2500 L/mol/cm. Moreover, the “B at λ max” value in series [1] (methanol) is 8500 L/mol/cm and 12000 L/mol/cm; in series [2] (absorption band at 275 nm) it was 14000 L/mol/cm; in series [2] (absorption band at 300 nm), 7800 L/mol/cm. Further, the T in series [1] (luminescence lifetime, methanol) stood at 1.59 ms; in series [2] (luminescence lifetime), 1.46 ms. The ε was 13000 L/mol/cm and 19000 L/mol/cm in series [1] (methanol); 21000 L/mol/cm in series [2] (absorption band at 275 nm); 11800 L/mol/cm in series [2] (absorption band at 300 nm). In addition, the Φ came to 65% in series [1] (methanol) and 66% in series [2] (quantum yield).

As to `COc1ccc(-c2cc(CN3CCN(Cc4cc(-c5ccc(OC)cc5)cc(C(=O)[O-])n4)CCN(Cc4cc(-c5ccc(OC)cc5)cc(C(=O)[O-])n4)CC3)nc(C(=O)[O-])c2)cc1.[Tb+3]` [complex 9, reference compound], in series [1] (methanol), the λ max was determined as 308 nm, the “B at λ max” value worked out at 3900 L/mol/cm, the ε was 33000 L/mol/cm and the Φ came to 12%.
